Data set [1] is described as follows: Thermodynamic solubility determination in FaSSIF. The data set is classed as physicochemical. The note with it: thermodynamic from solid, FaSSIF pH 6.5, 37°C. Here is the method:
• (1) The control compound, diclofenac sodium, was purchased from Sigma. • (2) FaSSIF, FeSSIF & FaSSGF (FFF02) powders were purchased from Biorelevant. • (3) 1.5 mL flat-bottom glass vials (purchased from local suppliers); PTFE/silicone septa (BioTech Solutions); PTFE-coated stir bars (V&P Scientific); MultiScreenHTS HV (0.45 µm) 96-well plates (Millipore, MSHVN4510 or MSHVN4550); Eppendorf Thermomixer Comfort; Vacuum Manifold ORVMN96 (Orochem).
0.420 g of NaOH, 3.438 g of NaH2PO4, and 6.186 g of NaCl were dissolved in approximately 900 mL of ultrapure water, and the pH of the solution was adjusted to 6.5 using 1N NaOH or 1N HCl. The solution was then diluted to 1000 mL with ultrapure water at room temperature.
2.240 g of FaSSIF, FeSSIF, and FaSSGF powder was added to approximately 500 mL of Buffer A. The mixture was stirred until the powder was completely dissolved. The solution was then diluted to 1000 mL with Buffer A at room temperature.
The solution was allowed to stand for 2 hours. The solution became slightly opalescent and was ready for use at that point. Note: it was to be used within 48 hours at room temperature or within 24 hours at 37°C.
(2) The test compounds and control compounds were weighed for solubility measurement (approximately 1.0 mg each in three separate 1.5 mL glass vials).
(3) For each compound, one vial served as a standard, and the other two vials were used for solubility measurement in duplicate.
(4) Each compound was placed sequentially into its appropriate 96-well plate. One plate served as the standard plate and the other as the sample plate.
(5) Based on the mass of the sample in each vial on the sample plate, an appropriate volume (approximately 1000 µL) of FaSSIF was added to each vial of the solubility sample plate using a pipette. […]
All calculations were performed using Microsoft Excel. Analysis and quantification of the sample filtrates were completed via LC-MS/MS by qualitative and quantitative comparison against the peaks of standards with known concentrations. […]

Data set [2] relates to Theta-mediated end joining (TMEJ) process in HEK293T cells. As to the kind of experiment: TMEJ reporter assay (NanoGlo luciferase). Particulars: Homo sapiens, HEK-293T, HEK293T cells electroporated with TMEJ substrate, 24 hours. The data set is classed as cell-based. As to the method: The inhibitory effect of the compounds on the Theta-mediated end joining (TMEJ) process was evaluated.
(1) HEK293T cells were cultured in DMEM supplemented with 10% heat-inactivated fetal bovine serum (FBS) and 1% penicillin-streptomycin (PS). (2) Prior to startup, the Neon transfection system was disinfected, and E2 and R buffers were equilibrated to room temperature. (3) Culture medium without antibiotics was pre-warmed. (4) Cells in the flask reaching 80-90% confluency were trypsinized, neutralized with culture medium, centrifuged, and counted. (5) For transfection using a 100 µL electroporation tip, 2 × 10^6 cells were taken, washed once with DPBS (without Mg^2+ and Ca^2+), centrifuged at 1000 rpm for 5 min, and the supernatant was discarded. The number of cells and volume may be increased as required. (6) The Neon system was set up; a Neon tube was inserted into the Neon pipette and E2 buffer was added. (7) 10 µg of TMEJ substrate was added to 100 µL of R solution; the volume may be increased as required. (8) Cells were resuspended in DNA buffer, and electroporation was initiated according to the following parameters:
(9) The cells were loaded into antibiotic-free culture medium and mixed gently. (10) Steps (8)-(9) were repeated as necessary, and cells were seeded into 384-well plates at a density of 40,000 cells/well in 40 µL of culture medium. (11) The plates were incubated in a humidified CO2 incubator at 37°C for 24 hours. (12) NanoGlo reagent was warmed to room temperature, and NanoGlo buffer was mixed with the substrate at a ratio of 50:1. (13) The cell culture plates were equilibrated at room temperature for 10 minutes. (14) 40 µL of NanoGlo substrate buffer was added to each well, followed by shaking at 300 rpm for 3 minutes protected from light. (15) Signals were read via a BMG PHERAstar FSX.
On the technique in general: A reporter such as luciferase makes a cellular process visible.

Our source for the solubility and IC50 values is patent EP4782434A1, “N-SULFONYL CARBOXAMIDE COMPOUND, AND PREPARATION METHOD THEREFOR AND USE THEREOF” (Nutshell Therapeutics (Shanghai) Co., Ltd., priority 2023, dated 2025).

As usually defined, the solubility is the dissolved amount per volume that the medium holds. A high value points to a readily soluble substance. In general, IC50 refers to the concentration needed to halve the response being measured. Low values mean inhibition by little substance, high ones a need for much substance.

Each structure is given as a SMILES string. Values after ≈ are worked out from the molar mass of the structure shown.

In the case of `COc1cnc(Cl)cc1-c1cc(C)ncc1C(=O)Nc1nnc(OC[C@H]2COCCO2)s1` [Ref. 1, reference compound], in data set [1] (24 hours), the solubility came to 31 µg/mL (≈ 64.9 µM). In data set [2], this compound showed an IC50 of 5 nM.

For the compound `[2H]C([2H])([2H])O[C@@H](C)c1ccc(CS(=O)(=O)NC(=O)c2ccc(C([2H])([2H])[2H])cc2-c2cc(C(F)F)ncc2OC)cc1` [cpd-16, (S)-2-(2-(Difluoromethyl)-5-methoxypyridin-4-yl)-N-((4-(1-(methoxy-d3)ethyl)benzyl)sulfonyl)-4-(methyl-d3)benzamide], in data set [1], the solubility at 24 h is 669 µg/mL (≈ 1310 µM). In data set [2], this compound showed an IC50 of 2 nM.

Take `[2H]C([2H])([2H])O[C@@H](C)c1ccc(CS(=O)(=O)NC(=O)c2ccc(C([2H])([2H])[2H])cc2-c2cc(Cl)ncc2OC)cc1` [cpd-17, (S)-2-(2-Chloro-5-methoxypyridin-4-yl)-N-((4-(1-(methoxy-d3)ethyl)benzyl)sulfonyl)-4-(methyl-d3)benzamide]: in data set [1], the solubility at 24 h came to 511 µg/mL (≈ 1030 µM). Further, in data set [2], the IC50 worked out at 1.8 nM.
